Some test systems named below: HT29 colon; IGROV1 ovarian; M14 melanoma; HS 578T breast; OVCAR-8 ovarian; SK-MEL-2 melanoma; SNB-75 CNS; SF-539 CNS; NCI-H522 lung; EKVX NSCLC.
Holding throughout (test): growth of human tumour cells (NCI), 48 h

SMILES strings stand for the structures. Values joined by “and” are separate entries in the source; they are usually repeats but may differ in a detail not shown here. Equal entries are not always repeated.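 The compound was tested at five concentrations on cells cultured in 96-well plates, with a 48-hour exposure period. GI50 is the concentration that inhibits growth by half. TGI marks complete inhibition of growth.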

For `CO/N=C(\c1ccccc1)c1cnn(-c2ccccc2)c1N`, the GI50 in the experiment with HT29 colon, in the experiment on IGROV1 ovarian, in the experiment with M14 melanoma, in the experiment with HS 578T breast, with OVCAR-8 ovarian and in the experiment with SK-MEL-2 melanoma was > 25 µM in each case. For the same compound, the GI50 with SNB-75 CNS, with SF-539 CNS and in the experiment with NCI-H522 lung was > 25 µM throughout. Also, the TGI in the experiment with HT29 colon, in the experiment on IGROV1 ovarian, in the experiment with M14 melanoma, in the experiment on HS 578T breast, in the experiment on OVCAR-8 ovarian and with SK-MEL-2 melanoma was > 25 µM throughout. Further, the TGI with SNB-75 CNS, in the experiment with SF-539 CNS and in the experiment on NCI-H522 lung was > 25 µM throughout.
For `OCC(O)CC[CH2][Sn]([c]1ccccc1)([c]1ccccc1)[c]1ccccc1` (stereo not given), the GI50 was 19 µM in the experiment on HT29 colon; 16.3 µM in the experiment with IGROV1 ovarian; 14.2 µM in the experiment on M14 melanoma; 16.5 µM with EKVX NSCLC; 15.7 µM in the experiment on OVCAR-8 ovarian; 15.3 µM in the experiment with SK-MEL-2 melanoma. The GI50 was 15.4 µM with SNB-75 CNS, 17.2 µM with SF-539 CNS and 4.64 µM in the experiment on NCI-H522 lung. In addition, the TGI in the experiment on HT29 colon worked out at 33.4 µM; with IGROV1 ovarian, 33.7 µM; with M14 melanoma it was 31 µM; in the experiment with EKVX NSCLC, 31.7 µM; with OVCAR-8 ovarian it was 31.5 µM; in the experiment on SK-MEL-2 melanoma it was 29 µM. Further, the TGI with SNB-75 CNS was 29 µM; with SF-539 CNS, 32.5 µM; in the experiment on NCI-H522 lung, 13.7 µM.
For `COC1=CC(c2ccc[nH]2)=N/C1=C\c1[nH]c(C)c(C(=O)CCC(=O)Oc2ccc3c(c2)CCC2C3CC[C@]3(C)C(=O)CC[C@@H]23)c1C` (stereo not given in full), the GI50 in the experiment on HT29 colon is 0.839 µM; in the experiment with IGROV1 ovarian it was 8.3 µM; with M14 melanoma, 12.3 µM; with HS 578T breast, 14.2 µM; in the experiment with OVCAR-8 ovarian it was 8.37 µM; with SK-MEL-2 melanoma it was 15.6 µM. Moreover, the GI50 in the experiment with SNB-75 CNS was > 42.7 µM; with SF-539 CNS, 14.3 µM; in the experiment on NCI-H522 lung it was 4.71 µM. For the same compound, the TGI was > 100 µM in the experiment on HT29 colon; > 100 µM in the experiment on IGROV1 ovarian; 33.4 µM in the experiment with M14 melanoma; > 100 µM with HS 578T breast; > 100 µM in the experiment on OVCAR-8 ovarian; 58.7 µM in the experiment with SK-MEL-2 melanoma. Besides, the TGI in the experiment with SNB-75 CNS was > 96.6 µM; with SF-539 CNS, > 100 µM; in the experiment on NCI-H522 lung, 60.1 µM.
For the compound `CN(C)CCNC(=O)c1ccc2ccc3cccnc3c2n1`, the TGI is > 100 µM in the experiment with HT29 colon; > 100 µM in the experiment on IGROV1 ovarian; 33.1 µM with M14 melanoma; 48.3 µM in the experiment on EKVX NSCLC; > 100 µM in the experiment with OVCAR-8 ovarian; 29.3 µM in the experiment with SK-MEL-2 melanoma. Also, the TGI was determined as 34.4 µM in the experiment on SNB-75 CNS, 33.7 µM in the experiment on SF-539 CNS and 25.5 µM in the experiment with NCI-H522 lung.
Consider `O=C(NO)c1ccc(C(=O)NO)cc1`, for which the TGI in the experiment on HT29 colon, in the experiment with IGROV1 ovarian, with M14 melanoma, in the experiment on HS 578T breast, in the experiment on EKVX NSCLC and in the experiment on OVCAR-8 ovarian was > 100 µM each time. For the same compound, the TGI with SNB-75 CNS and in the experiment with SF-539 CNS was > 100 µM each time.
As for `CN(C)c1c(Cl)c(=O)oc2c1ccc1nc(-c3ccccc3)sc12`, the TGI in the experiment on HT29 colon, in the experiment on IGROV1 ovarian, with M14 melanoma, with HS 578T breast, in the experiment on EKVX NSCLC and with OVCAR-8 ovarian was > 100 µM throughout. Also, the TGI in the experiment with SF-539 CNS and with NCI-H522 lung was > 100 µM in each case.
Regarding `O=C1c2ccn(CCCCN3CCOCC3)c2C(=O)c2c1c(O)c1ccccc1c2O`, the GI50 with HT29 colon is 3.75 µM; with IGROV1 ovarian it was 20.5 µM; in the experiment on M14 melanoma it was 2.36 µM; in the experiment with HS 578T breast, 29.8 µM; in the experiment with OVCAR-8 ovarian it was 5.52 µM; in the experiment on SNB-75 CNS, > 100 µM. Besides, the GI50 in the experiment on NCI-H522 lung was 40.3 µM. Besides, the TGI in the experiment with HT29 colon is 97 µM; in the experiment on IGROV1 ovarian, > 100 µM; with M14 melanoma it was 6.32 µM; in the experiment on HS 578T breast, > 100 µM; in the experiment with OVCAR-8 ovarian, 20 µM; with SNB-75 CNS, > 100 µM. Moreover, in the experiment on NCI-H522 lung, the TGI was > 100 µM.
Regarding `O=C1CCC2(c3ccc(F)cc3)Nc3ccccc3N12` (stereo not given), the TGI in the experiment on HT29 colon, in the experiment with IGROV1 ovarian, with M14 melanoma, in the experiment with EKVX NSCLC, in the experiment with OVCAR-8 ovarian and in the experiment with SK-MEL-2 melanoma was > 100 µM each time. Further, the TGI in the experiment with SNB-75 CNS, in the experiment with SF-539 CNS and in the experiment with NCI-H522 lung was > 100 µM throughout.
For `O=CC1=CCCC2(C1)OCCO2`, the TGI with HT29 colon, in the experiment with IGROV1 ovarian, in the experiment with M14 melanoma, with EKVX NSCLC, in the experiment on OVCAR-8 ovarian and in the experiment on SK-MEL-2 melanoma was > 100 µM in each case. The figures for the TGI in the experiment on SNB-75 CNS, in the experiment with SF-539 CNS and in the experiment with NCI-H522 lung were 24.2 µM, > 100 µM and > 100 µM, respectively.
As to `COC(=O)N1[C@H]2Cc3c(OC)c(C)c(OC)c(OC)c3[C@@H]1/C(=C\c1cc(OC)c(OC)c(C)c1OC)N(Cc1ccccc1)C2=O`, the TGI with HT29 colon, in the experiment on IGROV1 ovarian, in the experiment on M14 melanoma, in the experiment on EKVX NSCLC, with OVCAR-8 ovarian and in the experiment on SK-MEL-2 melanoma was > 100 µM throughout. In addition, the TGI is > 100 µM in the experiment with SNB-75 CNS, > 100 µM in the experiment with SF-539 CNS and 37.2 µM with NCI-H522 lung.
For `[Cu+2].[Cu+2].[O-]c1ccccc1C=Nc1ccccc1[O-].[O-]c1ccccc1C=Nc1ccccc1[O-]`, the GI50 with HT29 colon is 6.05 µM; in the experiment on IGROV1 ovarian it was 3.33 µM; in the experiment with M14 melanoma it was 4.45 µM; in the experiment on EKVX NSCLC it was 11.8 µM; with OVCAR-8 ovarian it was 8.16 µM; in the experiment on SK-MEL-2 melanoma it was 11.5 µM. Also, the GI50 in the experiment with SNB-75 CNS was 10.2 µM; with SF-539 CNS, 13.2 µM; with NCI-H522 lung, 2.39 µM. In addition, the TGI was found to be 27.4 µM in the experiment on HT29 colon; 12.2 µM with IGROV1 ovarian; 15.3 µM with M14 melanoma; 25.9 µM with EKVX NSCLC; 31.6 µM with OVCAR-8 ovarian; 24.4 µM with SK-MEL-2 melanoma. Further, the TGI came out at 21.8 µM in the experiment on SNB-75 CNS, 25.9 µM in the experiment with SF-539 CNS and 6.24 µM in the experiment with NCI-H522 lung.
Consider `O=C(O)CSc1n[nH]c(/C=C/c2ccccc2)n1`, for which the TGI in the experiment with HT29 colon, with IGROV1 ovarian, in the experiment with M14 melanoma, in the experiment on EKVX NSCLC, in the experiment on OVCAR-8 ovarian and in the experiment with SK-MEL-2 melanoma was > 100 µM in each case. Besides, the TGI in the experiment with SNB-75 CNS, in the experiment with SF-539 CNS and in the experiment on NCI-H522 lung was > 100 µM each time.
In the case of `COc1ccc(CNc2cc(OC)cc(OC)c2)cc1`, the GI50 with HT29 colon is > 73.8 µM and 35 µM; in the experiment with SF-539 CNS, > 90.2 µM. For the same compound, the TGI in the experiment with HT29 colon, in the experiment on IGROV1 ovarian, with M14 melanoma, in the experiment on EKVX NSCLC, in the experiment with OVCAR-8 ovarian and with SK-MEL-2 melanoma was > 100 µM each time. Moreover, the TGI is > 100 µM and 96.8 µM with SNB-75 CNS; > 100 µM in the experiment with SF-539 CNS; > 100 µM in the experiment with NCI-H522 lung.
On to `O=C1Nc2ccc(F)c3c(OCCO)cc(-c4ccc[nH]4)c1c23`, for which the GI50 with HT29 colon was 1.99 µM; in the experiment with IGROV1 ovarian, 1.86 µM; in the experiment on M14 melanoma, 1.4 µM; in the experiment on HS 578T breast, 1.06 µM; in the experiment with OVCAR-8 ovarian, 2.76 µM; with SK-MEL-2 melanoma, 1.4 µM. The GI50 was 1.52 µM with SNB-75 CNS, 2.19 µM in the experiment on SF-539 CNS and 2.12 µM in the experiment on NCI-H522 lung. Moreover, the TGI in the experiment on HT29 colon came out at 9.95 µM; in the experiment with IGROV1 ovarian, 10.4 µM; in the experiment on M14 melanoma, 12.4 µM; with HS 578T breast, 10.2 µM; with OVCAR-8 ovarian it was 18.3 µM; in the experiment with SK-MEL-2 melanoma it was 6.51 µM. Moreover, the TGI turned out to be 7.02 µM with SNB-75 CNS, 6.12 µM with SF-539 CNS and 11.6 µM in the experiment with NCI-H522 lung.
Consider `CCCCN(CC)C(=O)C(=O)C1C(=O)Nc2ccccc2S1=O` (stereo not given), for which the TGI with HT29 colon, with IGROV1 ovarian, in the experiment on M14 melanoma, with EKVX NSCLC, in the experiment with OVCAR-8 ovarian and in the experiment on SK-MEL-2 melanoma was > 100 µM throughout. In addition, the TGI in the experiment on SNB-75 CNS, in the experiment on SF-539 CNS and with NCI-H522 lung was > 100 µM each time.
Turning to `COc1ccc(-c2nc(-c3nc4ccc(F)cc4[nH]3)cc3c2[nH]c2ccccc23)cc1`, the GI50 was 2.96 µM in the experiment on HT29 colon; 2.49 µM with IGROV1 ovarian; 2.54 µM in the experiment with M14 melanoma; 2.82 µM in the experiment with HS 578T breast; 1.78 µM in the experiment on OVCAR-8 ovarian; 2.11 µM in the experiment with SK-MEL-2 melanoma. For the same compound, the GI50 was 2.8 µM in the experiment with SF-539 CNS and 2 µM with NCI-H522 lung. In addition, the TGI in the experiment on HT29 colon is 9.01 µM; with IGROV1 ovarian, 9.7 µM; in the experiment on M14 melanoma, 7.12 µM; in the experiment with HS 578T breast, > 100 µM; in the experiment on OVCAR-8 ovarian, 6.69 µM; with SK-MEL-2 melanoma, 4.45 µM. Besides, the TGI stood at 9.33 µM with SF-539 CNS and 5.97 µM with NCI-H522 lung.
Regarding `C=C1C(=O)O[C@@H]2C[C@]3(C)[C@@H](C[C@H]12)[C@](C)(O)CC[C@@H]3O`, the TGI in the experiment on HT29 colon, with IGROV1 ovarian, with M14 melanoma, in the experiment with EKVX NSCLC, with OVCAR-8 ovarian and in the experiment with SK-MEL-2 melanoma was > 100 µM in each case. Further, the TGI in the experiment on SNB-75 CNS, in the experiment with SF-539 CNS and in the experiment on NCI-H522 lung was > 100 µM in each case.
